Results on one compound are retold here after EP4737486A1, “HYALURONIC ACID DERIVATIVE, AND PREPARATION METHOD THEREFOR AND USE THEREOF” (priority 2023, dated 2025).

In this data set the test system is blood. The experiment in a line: Anticoagulant activity by prothrombin time in rat blood (CoaguChek X). Further details: species or system male SD rats. Conditions: 278 µg/mL in rat blood, n = 3; versus normal saline and no-addition groups. As for the experimental part:
The anticoagulant activity of the compound was assessed by measuring prothrombin time according to the reference [Sulakshan Sulakshana et al., Anesth Essays Res., 2021, 15(4): 341-347].
The experimental method and steps are as follows: • 1) About 2 mL of blood was obtained from the abdominal aorta of male SD rats (8 weeks old). One sample corresponded to one rat, and n = 3. • 2) Each substance was added to the blood at a concentration of 27.8 µg/mL or 278 µg/mL, and mixing was performed (generally, 27.8 µg/mL was used for transfusion). • 3) To assess the anticoagulant effect of the samples, prothrombin time was measured using CoaguChek X (Sekisui Medical).
• 1) Normal saline; • 2) Unfractionated heparin (UFH), sodium heparin injection 5000 units/5 mL, Mochida (average molecular weight: 15000); • 3) Fragmin: low molecular weight heparin, average molecular weight of 5000, 5000 units/5 mL; • 4) Arixtra: […], average molecular weight of 1728 (5 mers), 5000 units/5 mL; • 5) No addition.

For `CO[C@H]1O[C@H](COS(=O)(=O)O)[C@@H](O[C@@H]2O[C@@H](C(=O)O)[C@@H](O[C@H]3O[C@H](COS(=O)(=O)O)[C@@H](O[C@@H]4O[C@H](C(=O)O)[C@@H](O[C@H]5O[C@H](COS(=O)(=O)O)[C@@H](O)[C@H](O)[C@H]5NS(=O)(=O)O)[C@H](O)[C@H]4O)[C@H](OS(=O)(=O)O)[C@H]3NS(=O)(=O)O)[C@H](O)[C@H]2OS(=O)(=O)O)[C@H](O)[C@H]1NS(=O)(=O)O` [Arixtra], the prothrombin time entry was “significantly longer”.
